Experimental data: patent US8772277B2, “Nitrogen-containing heterocyclic compound” (Takeda Pharmaceutical Company Limited, priority 2011, dated 2014)
Structures can show the parent of a compound that is named as a salt.

Key:
[1] = target: T1, fusion protein containing GAL4-DNA-binding domain and ERR full-length (Homo sapiens, UniProt P11474); experiment: Reporter assay system using 293T cells (GAL4-ERR luciferase, inverse agonist activity); assay type: cell-based; details: compound final concentration 3 μM, no compound = 0%, 10 μM XCT-790 = 100%; for inhibition at 3 µM: HEK-293T, read-out: inhibition rate (%) at 3 μM
T1 construct: expressed in transfected cells; host or cells: 293T cells
T1 sequence (P11474 1-423): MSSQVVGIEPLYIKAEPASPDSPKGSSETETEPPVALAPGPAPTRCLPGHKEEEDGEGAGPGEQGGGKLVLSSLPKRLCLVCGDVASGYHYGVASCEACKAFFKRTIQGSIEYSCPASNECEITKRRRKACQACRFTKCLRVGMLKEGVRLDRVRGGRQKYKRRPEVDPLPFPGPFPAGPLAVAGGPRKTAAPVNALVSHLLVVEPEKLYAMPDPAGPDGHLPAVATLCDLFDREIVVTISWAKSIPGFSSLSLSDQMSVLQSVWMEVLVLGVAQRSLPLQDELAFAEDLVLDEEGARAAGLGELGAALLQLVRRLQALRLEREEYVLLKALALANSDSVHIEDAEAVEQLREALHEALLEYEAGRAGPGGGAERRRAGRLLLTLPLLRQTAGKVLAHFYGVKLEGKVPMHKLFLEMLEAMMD
Procedure: Experimental Example 2 Compound Evaluation in Reporter Assay System Using 293T Cells
293T cells derived from human kidney were seeded in a 150 cm^2 flask by 6,000,000 cells, and cultured in a medium (DMEM medium containing 10% inactivated Fetal Bovine Serum sterile filtered (FBS), […] Gentamicin, 10 mM HEPES buffer (pH 7.4)) at 37° C. in the presence of 5% CO2 for 1 day.
Then, vector DNA having a gene encoding a fusion protein, containing GAL4-DNA-binding domain and ERR full-length and a vector DNA wherein luciferase gene is fused at the downstream of GAL4-binding-sequence were cotransfected by a lipofection method, and the cells were cultured at 37° C. in the presence of 5% CO2 for 1 day. The cells were recovered, sown in a 384 well plate by 15,000 cells, and cultured at 37° C. in the presence of 5% CO2 for 3 hrs. Furthermore, 50 μM N-[5-(trifluoromethyl)-1,3,4-thiadiazol-2-yl]-2-cyano-3-[3-methoxy-4-[2,4-di(trifluoromethyl)benzyloxy]phenyl]propenamide (XCT-790) (final concentration 10 μM) or 15 μM compound (final concentration 3 μM) was added, and the cells were cultured at 37° C. in the presence of 5% CO2 for 1 day. The luciferase activity was measured by using multiplate reader Envision (Perkin Elmer Inc.). The inverse agonist activity of the compound was calculated in percentage with the luciferase activity inhibited by no addition of compound as 0%, and with addition of final concentration 10 μM of XCT-790 as 100%.

MDA-MB-231-luc cells = experiment: Antitumor test using MDA-MB-231-luc cells (subcutaneous transplant); assay type: in vivo, Balb/c nu/nu mice; details: change in tumor volume, vehicle group = 100%
Procedure: Experimental Example 3 Antitumor Test using MDA-MB-231-luc Cells
6-Week-old Balb/c nu/nu mice were transplanted subcutaneously with 5×10^6 cells/100 μL, and the mice were grouped according to the body weight and tumor volume after 1 to 2 weeks. Vehicle (0.5% MC) or a compound was administered orally to mice (6 mice per group). The administration was twice per day and performed continuously during the dosing period. Setting the change in tumor volume of the vehicle-treated group as 100%, the change rate in tumor volume of the compound-treated group (□/C %) was calculated.

[2] = target: T2, GST-ERR-α ligand-binding domain (Homo sapiens, UniProt P11474); experiment: HTRF assay system using ERR-α ligand-binding domain (inverse agonist activity, biotinylated SRC-1 (676-700) peptide); assay type: biochemical; details: compound final concentration 30 μM, 665/620 ratio, no compound = 0%, 10 μM XCT-790 = 100%; for inhibition at 30 µM: read-out: inhibition rate (%) at 30 μM
T2 sequence (P11474 193-421 limits assumed): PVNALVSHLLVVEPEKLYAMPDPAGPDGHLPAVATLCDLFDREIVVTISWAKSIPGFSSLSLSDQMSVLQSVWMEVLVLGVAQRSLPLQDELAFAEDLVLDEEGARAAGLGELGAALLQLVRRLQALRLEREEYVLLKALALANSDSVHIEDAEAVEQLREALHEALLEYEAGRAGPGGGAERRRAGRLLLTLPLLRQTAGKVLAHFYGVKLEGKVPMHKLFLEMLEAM
Procedure: Experimental Example 1 Compound Evaluation in HTRF Assay System Using ERR-α Ligand-Binding Domain
An assay buffer (25 mM HEPES, 100 mM NaCl, 1 mM DTT, 0.1% BSA) containing 5 nM GST-ERR-α ligand-binding domain (final concentration 1.25 nM) was added to a 384 well plate, then 40 μM N-[5-(trifluoromethyl)-1,3,4-thiadiazol-2-yl]-2-cyano-3-[3-methoxy-4-[2,4-di(trifluoromethyl)benzyloxy]phenyl]propenamide (XCT-790) (final concentration 10 μM), or 120 μM compound (final concentration 30 μM) was added. Furthermore, an assay buffer containing XL665 conjugated Streptavidin, Eu^3+ criptate conjugated GST antibody and 200 nM biotinylated SRC-1 (676-700) (final concentration 100 nM) was added, and the mixture was reacted at room temperature for 2 hr. Using Multiplate reader Envision (Perkin Elmer Inc.), after excitation at 320 nm, fluorescence values at 620 nm and 665 nm were measured. The inverse agonist activity of the compound was calculated in percentage with the 665/620 ratio value inhibited by no addition of compound as 0%, and with addition of final concentration 10 μM of XCT-790 as 100%.

[3] = 50 mg/kg orally twice per day, dosing period 14 days

Compound	inhibition at 3 µM [1] [%]	inhibition at 30 µM [2] [%]	also measured
O=C1N=C(NCCOCCO)/C(=C/C2CCN(Cc3ccc(C(F)(F)F)cc3C(F)(F)F)CC2)S1 [Example 195, (5Z)-5-({1-[2,4-bis(trifluoromethyl)benzyl]piperidin-4-yl}methylidene)-4-{[2-(2-hydroxyethoxy)ethyl]amino}-1,3-thiazol-2(5H)-one hydrochloride]			inhibition rate (%) at 3 μM ([1]; hydrochloride): 90%; T/C (%) (MDA-MB-231-luc cells; 50 mg/kg orally twice per day, dosing period 17 days): 56%; inhibition rate (%) at 30 μM ([2]; hydrochloride): 102%
C#CCNC1=NC(=O)S/C1=C\C1CCN(Cc2ccc(C(F)(F)F)cc2C(F)(F)F)CC1 [Example 10, (5Z)-5-({1-[2,4-bis(trifluoromethyl)benzyl]piperidin-4-yl}methylidene)-4-(prop-2-yn-1-ylamino)-1,3-thiazol-2(5H)-one fumarate]			inhibition rate (%) at 3 μM ([1]; fumarate): 93%; T/C (%) (MDA-MB-231-luc cells; 60 mg/kg orally twice per day, dosing period 15 days): 15%; inhibition rate (%) at 30 μM ([2]; fumarate): 102%
CN(C)C(=O)[C@@H](CO)NC1=NC(=O)S/C1=C\C1CCN(Cc2ccc(C(F)(F)F)cc2C(F)(F)F)CC1 [Example 115, N^2-[(5Z)-5-({1-[2,4-bis(trifluoromethyl)benzyl]piperidin-4-yl}methylidene)-2-oxo-2,5-dihydro-1,3-thiazol-4-yl]-N,N-dimethyl-D-serinamide]	90	99	T/C (%) (MDA-MB-231-luc cells; [3]): 55%
C#CCNC1=NC(=O)S/C1=C\C1CCN(Cc2ccc(C(F)(F)F)cc2C(F)(F)F)CC1 [Example 7, (5Z)-5-({1-[2,4-bis(trifluoromethyl)benzyl]piperidin-4-yl}methylidene)-4-(prop-2-yn-1-ylamino)-1,3-thiazol-2(5H)-one]			inhibition rate (%) at 3 μM [1]: 87%; T/C (%) (MDA-MB-231-luc cells; [3]): 24%; inhibition rate (%) at 30 μM [2]: 100%
CC(C)(CO)CNC1=NC(=O)S/C1=C\C1CCN(Cc2ccc(C(F)(F)F)cc2C(F)(F)F)CC1 [Example 78, (5Z)-5-({1-[2,4-bis(trifluoromethyl)benzyl]piperidin-4-yl}methylidene)-4-[(3-hydroxy-2,2-dimethylpropyl)amino]-1,3-thiazol-2(5H)-one fumarate]			T/C (%) (MDA-MB-231-luc cells; [3]): 11%
C#CCNC1=NC(=O)S/C1=C\C1CCN(Cc2ccc(C(F)(F)F)cc2C(F)(F)F)C1 (stereo not drawn) [Example 69, (5Z)-5-({1-[2,4-bis(trifluoromethyl)benzyl]pyrrolidin-3-yl}methylidene)-4-(prop-2-yn-1-ylamino)-1,3-thiazol-2(5H)-one maleate]	87	67	
CC(C)(O)CNC1=NC(=O)S/C1=C\C1CCN(Cc2ccc(C(F)(F)F)cc2C(F)(F)F)CC1 [Example 31, (5Z)-5-({1-[2,4-bis(trifluoromethyl)benzyl]piperidin-4-yl}methylidene)-4-[(2-hydroxy-2-methylpropyl)amino]-1,3-thiazol-2(5H)-one]			inhibition rate (%) at 3 μM [1]: 87%; inhibition rate (%) at 30 μM [2]: 101%
CN(C)C(=O)CNC1=NC(=O)S/C1=C\C1CCN(Cc2ccc(C(F)(F)F)cc2C(F)(F)F)CC1 [Example 108, N^2-[(5Z)-5-({1-[2,4-bis(trifluoromethyl)benzyl]piperidin-4-yl}methylidene)-2-oxo-2,5-dihydro-1,3-thiazol-4-yl]-N,N-dimethylglycinamide]	81	89	T/C (%) (MDA-MB-231-luc cells; [3]): 45%
C#CCNC1=NC(=O)S/C1=C\C1CCN(Cc2ccc(C#N)cc2C(F)(F)F)CC1 [Example 40, 4-[(4-{(Z)-[2-oxo-4-(prop-2-yn-1-ylamino)-1,3-thiazol-5(2H)-ylidene]methyl}piperidin-1-yl)methyl]-3-(trifluoromethyl)benzonitrile]	62	73	
CN(C)C(=O)[C@H](CO)NC1=NC(=O)S/C1=C\C1CCN(Cc2ccc(C(F)(F)F)cc2C(F)(F)F)CC1 [Example 132, N^2-[(5Z)-5-({1-[2,4-bis(trifluoromethyl)benzyl]piperidin-4-yl}methylidene)-2-oxo-2,5-dihydro-1,3-thiazol-4-yl]-N,N-dimethyl-L-serinamide]	78	102	

Now from value to compound, other results behind:

inhibition at 3 µM [1] [%]	inhibition at 30 µM [2] [%]	Compound	also measured
97	106	CC(C)(O)CNC1=NC(=O)S/C1=C\C1CCN(Cc2ccc(C(F)(F)F)cc2C(F)(F)F)CC1 [Example 17, (5Z)-5-({1-[2,4-bis(trifluoromethyl)benzyl]piperidin-4-yl}methylidene)-4-[(2-hydroxy-2-methylpropyl)amino]-1,3-thiazol-2(5H)-one fumarate]	T/C (%) (MDA-MB-231-luc cells; 50 mg/kg orally twice per day, dosing period 15 days): 40%
90	95	O=C1N=C(NCC2CC2)/C(=C/C2CCN(Cc3ccc(C(F)(F)F)cc3C(F)(F)F)CC2)S1 [Example 61, (5Z)-5-({1-[2,4-bis(trifluoromethyl)benzyl]piperidin-4-yl}methylidene)-4-[(cyclopropylmethyl)amino]-1,3-thiazol-2(5H)-one fumarate]	
95	105	O=C1N=C(NC2COC2)/C(=C/C2CCN(Cc3ccc(C(F)(F)F)cc3C(F)(F)F)CC2)S1 [Example 20, (5Z)-5-({1-[2,4-bis(trifluoromethyl)benzyl]piperidin-4-yl}methylidene)-4-(oxetan-3-ylamino)-1,3-thiazol-2(5H)-one]	
89	112	C#CCNC1=NC(=O)S/C1=C\C1CCN(Cc2ccc(C(F)(F)F)cc2C(F)(F)F)CC1 [Example 16, (5Z)-5-({1-[2,4-bis(trifluoromethyl)benzyl]piperidin-4-yl}methylidene)-4-(prop-2-yn-1-ylamino)-1,3-thiazol-2(5H)-one hydrochloride]	
